Molecules are shown by their SMILES.

As usually defined, the Emax is the size of the effect at its maximum, as opposed to the concentration needed.

Assay [1] has as its system IL-6 production induced by lipopolysaccharide (LPS) in human corneal epithelial cells (HCE-T). Description: Inhibition of LPS-induced IL-6 production in human corneal epithelial cells (GR agonist activity). Type of assay: cell-based. The note with it: Corneal epithelial cell, 10 μL of 100 μM test compound solution per well, 4 hours incubation, efficacy relative to DEX. As for the experimental part: In order to evaluate a GR agonist activity of the present compound, the inhibitory effects on the IL-6 production induced by lipopolysaccharide (LPS) in human corneal epithelial cells. IL-6 levels in the conditioned medium were measured using the HTRF human IL-6 Kit (boehringer-Ingelheim, Cat No. 62IL6PEB), and the procedure was carried out according to the protocol attached to the kit. Hereinafter, the specific method will be described.
LPS solution: After LPS was dissolved in phosphate buffer solution (hereinafter referred to as PBS(−)), the resulting solution was diluted with 10% FBS-DMEM/F12 medium, whereby a 1 μg/mL LPS solution was prepared.
After a test compound was dissolved in dimethylsulfoxide (hereinafter referred to as DMSO), the resulting solution was diluted with 10% FBS-DMEM/F12 medium, whereby a 100 μM test compound solution was prepared. A 100 μM DEX solution was prepared by the same method, and the inhibitory ratio of IL-6 production of DEX was evaluated to use for calculating efficacy (% DEX).
Used cell: SV40-immortalized human corneal epithelial cells (HCE-T) (RIKEN)
1) HCE-T cells were harvested, and seeded at 2.0×10^4 cells/0.1 mL/well in a 96-well plate.
2) After incubation overnight, the medium was removed and a 80 μL of new 10% FBS-DMEM/Ham's F12 medium was added into each well.
3) A 10 μL of test compounds solution was added into each well.
4) A 10 μL of LPS solution was added into each well.
5) As a negative control, a 10 μL of 10% FBS-DMEM/Ham's F12 medium was added into each well instead of a test compound solution and a LPS solution.
6) As a positive control, a 10 μL of 10% FBS-DMEM/Ham's F12 medium containing 1% DMSO was added into each well instead of a test compound solution.
7) After 4 hours incubation, supernatants were collected and IL-6 levels in the supernatants were quantitated using the HTRF human IL-6 Kit.
8) The inhibition ratio of IL-6 production (%) was calculated according to the following equation.
The inhibition ratio of IL-6 production (%) was calculated according to the following equation. The inhibition ratio of IL-6 production (%)=100×{1−(IL-6 level in each group−mean value of IL-6 level in negative control)/(mean value of IL-6 level in positive control−mean value of IL-6 level in negative control)} (%)
Furthermore, the inhibition ratio of IL-6 production (efficacy (% DEX)) was also calculated according to the following equation. Efficacy(% DEX)=100×{(mean value of IL-6 inhibition in compound-treated group)/(mean value of IL-6 inhibition in DEX-treated group)} (%) (Results and Discussion)

Assay [2] relates to allergic conjunctivitis model in mice. The assay is described as follows: Inhibitory effect on vascular hyper-permeability in allergic conjunctivitis model. The assay is classed as in vivo. The note with it: male BALB/c mice, ovalbumin-sensitized; 1% (W/V) suspension instilled 15 min, 1 hr and 3 hrs before ovalbumin; Evans blue dye leakage; mean of 6 eyes. As for the experimental part:
In order to evaluate anti-allergic effect of the present compound, the inhibitory effect on the vascular hyper-permeability in allergic conjunctivitis model in mice was examined. This effect was calculated based on dye leakages of vehicle-treated group (control group) and test compound-treated group.
By adding 0.5% polysorbate 80/saline to the test compound, a 1% (W/V) test compound suspension was prepared.
1) Ovalbumin absorbed on aluminum hydroxide gel was dissolved in saline (20 μg ovalbumin/mL), and male BALB/c mice, 6 weeks old, were actively sensitized to the antigen by intraperitoneal injections of 500 μL of it.
2) On the 6th day from sensitization, sensitized mice were boosted by additional intraperitoneal injections of 500 μL ovalbumin absorbed on aluminum hydroxide gel (20 μg ovalbumin/mL).
3) On the 11th day, 12th day, 13th day, 14th day and 15th day from the first sensitization, allergic conjunctivitis were induced by instillations to the right eyes of the mice of […] of 50% glycerol solution containing 15% (W/V) ovalbumin.
4) […] of test compound suspension per eye was instilled to the right eye of the above mice 15 min, 1 hr and 3 hrs before ovalbumin instillation (three times) on the 15th day from sensitization. In vehicle-treated group (control group), the mice were instilled with 0.5% polysorbate 80/saline in substitution for test compound suspension.
5) Just before ovalbumin instillation on the 15th day from sensitization, all animals received a tail intravenous injection of 0.1% Evans blue dye. The right periocular tissues of the mice, which were the leaked parts of dye, were collected 30 min after ovalbumin instillation. The dye was extracted from the tissues with the dye extraction liquid. Then the absorbance of the dye extract was measured. The dye leakage was calculated from the absorbance value, and the inhibition ratio of the vascular hyper-permeability of test compound-treated group was calculated according to calculation equation 1. The inhibition ratio of the vascular hyper-permeability of test compound-treated group (%)=(1−Ax/Ao)×100 (Calculation Equation 1) • Ao: Dye leakage in vehicle-treated group (control group) • Ax: Dye leakage in test compound-treated group (Test Results and Discussion)

In assay [3] the test system is carrageenan-induced paw edema model in rats. The assay is described as follows: Carrageenan-induced paw edema model. The assay is classed as in vivo. The note with it: female Lewis rat; 10 mg/kg oral, 30 minutes before carrageenan; paw volume 3 hr after injection; read-out: Inhibition ratio of paw edema (%). How it is done: The inhibitory effect for paw edema using carrageenan-induced paw edema model in rats is known as one of the general methods for testing the inhibitory effect on inflammation on the joint and the like. Therefore, the inhibitory effect of the present compound for paw edema was carried out, the inhibition rate of paw edema was calculated, and then the anti-inflammatory effect of the present compound was evaluated based on the rate. The concrete method of the test is described below.
A 2 mg/mL test compound suspension was prepared by adding 1% methyl cellulose (base) to the test compound.
1) The weight and right hind paw volume of female Lewis rat (8˜10 weeks) were measured before drug administration.
2) The test compound suspension was administered at 10 mg/kg to the test compound group. Meanwhile, 1% methyl cellulose was administered orally at 5 mL/kg to the sham-operation group and vehicle group (control group).
3) After 30 minutes from oral administration, 0.1 mL of a 1% w/v carrageenan/distilled water solution was subcutaneously injected into right foot pad. 0.1 mL of distilled water was subcutaneously injected for sham-operation group.
4) The right hind paw volume was measured 3 hr after injection of carrageenan or distilled water.
(Formulation Concerning Estimation of Drug Activity) The increase ratio of paw volume (%)=100×(right hind paw volume 3 hr after injection of carrageenan or distilled water (mL)−right hind paw volume before the test compound administration (mL))/right hind paw volume before the test compound administration (mL) (Calculation Equation 1) The inhibition ratio of paw edema (%)=100−100×(the increase ratio of paw volume of each test compound group (%)−the increase ratio of paw volume of sham-operation group (%))/(the increase of paw volume of vehicle group (%)−the increase of paw volume of sham-operation group (%)) (Calculation Equation 2) (Test Results and Discussion)
(In general: The carrageenan paw model is a standard test of acute inflammation.)

The test system of assay [4] is choroidal neovascularization (CNV) model in rats. Description: Laser induced choroidal neovascularization model. Conditions: Brown Norway male rats; 1% (w/v) eye drops four times a day or 20 mg/mL subconjunctival injection (route not given); fluorescein angiography 7 days after laser; mean of 7-8 eyes. Type of assay: in vivo. How it is done:
The choroidal neovascularization (CNV) model in rats is known as one of the popular methods for evaluating the CNV inhibitory effect of drugs. This method is reported in Graefe's Arch. Cli. Exp. Ophthalmol., 235, 313-319 (1997). According to this method, the CNV examinations were performed to evaluate the CNV inhibitory effect of test compounds by comparing the incidence rates of CNV in vehicle group (control group) with test compound-treated groups.
For eye drop administration, a 1% (w/v) test compound suspension was prepared by adding 0.5% polysorbate 80/saline to the test compound. For subconjunctival injection, a 20 mg/mL test compound suspension was prepared by adding 0.5% hydrogenated castor oil/saline to the test compound.
1) Brown Norway male rats (7-8 weeks) were anesthetized with intramuscular injection (1 mL/kg) of the mixed solution (5% ketamine HCl:2% xylazine HCl=7:1).
2) After mydriasis using tropicamide phenylephrine hydrochloride eye drops (trade name Mydrin P), laser photocoagulation of bruch's membrane in rats was performed with krypton laser photocoagulation machine. Laser irradiation was performed at 8 points per eye avoiding thick retinal blood vessels in ocular fundus and focusing on the depth of retina. The conditions were 100 μm spot size, 100 mW power, 0.1 second duration.
3) After laser photocoagulation, photographs of ocular fundus were taken and the laser photocoagulation (laser irradiation) points were confirmed.
1) In case of eye drops administration, a test compound suspension was administrated four times a day from laser irradiation day (the 1st day) to the 8th day. In case of subconjunctival injection, a 50 μL test compound suspension was injected into conjunctivae just after laser irradiation.
2) In vehicle group (control group), 0.5% polysorbate 80/saline or 0.5% hydrogenated castor oil/saline was used instead of a test compound suspension. And the test was performed according to the method 1).
1) 7 days after laser irradiation, 0.1 mL of 10% fluorescein was injected into rat tail vein and fluorescein angiography was performed.
2) When the fluorescent leakage was not detected in the fluorescent angiography, the spot was judged to be a negative spot. When the fluorescent leakage was detected, the spot was judged to be a positive spot. When the fluorescent leakage was detected as a little leakage, two spots were counted as one positive spot.
3) The neovascular incidence rate was calculated according to the equation 1. According to the equation 2, the ratio of neovascular incidence rate in test compound group to vehicle group was calculated. Neovascular incidence rate (%)=(Positive spots/all spots)×100 (Equation 1) Angiogenic inhibition ratio in test compound group (%)=(1−Ax/Ao)×100 (Equation 2)
Ao: Neovascular incidence rate in vehicle group (control group)
Ax: Neovascular incidence rate in test compound group

Molecule `CCCS(=O)(=O)Oc1ccc(-c2ccc3c(c2CNc2ccccc2OC)N(C)C(=O)C(C)(C)N3)c(OC)c1` [Compound No. 2-7, 8-(2-Methoxyphenylaminomethyl)-7-(2-methoxy-4-propylsulfonyl-oxyphenyl)-1,3,3-trimethyl-3,4-dihydro-1H-quinoxalin-2-one] showed an Emax in assay [1] of 94%. Moreover, the “The inhibition ratio of the vascular hyper-permeability (%)” value in assay [2] was determined as 35%. For the same molecule, in assay [3], the inhibition in vivo at 10 mg/kg was 52%.
In assay [1], `COc1cc(OS(=O)(=O)C2CC2)ccc1-c1ccc2c(c1COc1cc(F)ccc1C)N(C)C(=O)C(C)(C)N2` [Compound No. 1-13, 7-(4-Cyclopropylsulfonyloxy-2-methoxyphenyl)-8-(5-fluoro-2-methyl-phenoxymethyl)-1,3,3-trimethyl-3,4-dihydro-1H-quinoxalin-2-one] registered an Emax of 100%. Further, the “Angiogenic inhibition ratio (%)” value in assay [4] is 38%. In assay [3], the inhibition in vivo at 10 mg/kg was 67%.
The like results for `COc1ccccc1NCc1c(-c2ccc(OS(=O)(=O)C3CC3)cc2OC)ccc2c1N(C)C(=O)C(C)(C)N2` [Compound No. 2-2, 7-(4-Cyclopropylsulfonyloxy-2-methoxyphenyl)-8-(2-methoxy-phenylaminomethyl)-1,3,3-trimethyl-3,4-dihydro-1H-quinoxalin-2-one] were, in that order, 86%, 41% and 51%.
In turn, `CCCS(=O)(=O)Oc1ccc(-c2ccc3c(c2COc2cc([N+](=O)[O-])ccc2C)N(C)C(=O)C(C)(C)N3)c(OC)c1` [Compound No. 1-38, 7-(2-Methoxy-4-propylsulfonyloxyphenyl)-8-(2-methyl-5-nitrophenoxy-methyl)-1,3,3-trimethyl-3,4-dihydro-1H-quinoxalin-2-one] returned an Emax in assay [1] of 94%. Also, the “Angiogenic inhibition ratio (%)” value in assay [4] was 33%. In addition, the inhibition in vivo at 10 mg/kg in assay [3] is 50%.
`COc1cc(OS(=O)(=O)C2CCCC2)ccc1-c1ccc2c(c1CNc1cc(F)ccc1C)N(C)C(=O)C(C)(C)N2` [Compound No. 1-43, 7-(4-cyclopentylsulfonyloxy-2-methoxyphenyl)-8-(5-fluoro-2-methyl-phenylaminomethyl)-1,3,3-trimethyl-3,4-dihydro-1H-quinoxalin-2-one] showed an Emax in assay [1] of 82%. Moreover, the “Angiogenic inhibition ratio (%)” value in assay [4] is 18%.
For the molecule `COc1cc(OS(C)(=O)=O)ccc1-c1ccc2c(c1COc1cc(F)ccc1C)N(C)C(=O)C(C)(C)N2` [Compound No. 1-1, 8-(5-Fluoro-2-methylphenoxymethyl)-7-(2-methoxy-4-methylsulfonyloxyphenyl)-1,3,3-trimethyl-3,4-dihydro-1H-quinoxalin-2-one], the maximal response (Emax) in assay [1] amounted to 92%. In addition, the “The inhibition ratio of the vascular hyper-permeability (%)” value in assay [2] is listed as 36%. Further, the “Angiogenic inhibition ratio (%)” value in assay [4] came out at 31%.

These data come from US8664221B2 (Santen Pharmaceutical Co., Ltd., priority 2008, dated 2014).
